Patent US20260007634A1, “PHARMACEUTICAL COMPOSITIONS FOR THE TREATMENT OF ALLERGIC DISEASES” (KINKI UNIVERSITY, priority 2022, published 2026)

What was measured:
IL-5 = test: Auricular tissue IL-5 ELISA, atopic dermatitis mice; assay type: in vivo, mouse; conditions: day 7, topical application, control 15, vehicle 32
Protocol: MC903 at 2 nM was applied to the right auricle of a 6-week-old male Balb/c (Japan SLC Inc.). Starting 8 h later, 5% norathyriol aqueous solution (1 mL of ethanol containing […] of norathyriol), betamethasone ointment, and delgocitinib ointment were applied to the auricle for 7 days. The measurement of auricular skin swelling was calculated by calipers. The day on which the first application of the compound was made was defined as day 0. Betamethasone and delgocitinib are currently in clinical use in atopic dermatitis and were used as control drugs in this example.
The mouse IL-5 ELISA kit (R&D) was used for this measurement.

[1] = tested on: Balb/c mice with ovalbumin-induced food allergy; test: Frequency of diarrhea, ovalbumin-induced food allergy mice; assay type: in vivo, mouse; conditions: OVA food allergy; oral daily 14 days from day 14, 10 mg/kg (dexamethasone 2 mg/kg); measured day 28; vs vehicle group
Protocol: A 0.2 mL dose of 10 μg ovalbumin (OVA) and 1 mg Alum mixture was administered to 6-week-old female Balb/c mice (Japan SLC Inc.) (day 0 of the example). Alum was used as an adjuvant. Seven days later, the Balb/c mice were immunized again with a 0.2 mL injection of the above mixture. Starting on day 14, mice were orally treated with 10 mg/kg of norathyriol, 10 mg/kg of mangiferin 8a, 10 mg/kg of tofacitinib (JAK inhibitor), 2 mg/kg of dexamethasone (steroid) and 10 mg/kg of olopatadine (antihistamine) daily for 14 consecutive days. Starting on day 14, 10 mg OVA was administered orally every other day […], and the frequency of diarrhea was measured after the final administration on day 28. Note that tofacitinib, dexamethasone, and olopatadine are currently in clinical use in food allergy and were used as control drugs in this example.
The group that was just immunized with OVA is called the subject group, the one that received norathyriol is called the norathyriol group, the one that received mangiferin 8a is called the mangiferin 8a group, the one that received tofacitinib is called the tofacitinib group, the one that received dexamethasone is called the dexamethasone group, and the one that received olopatadine is called the olopatadine group. Each group consisted of five animals.

[2] = tested on: B cells collected from mice; test: BAFF-induced differentiation into plasma cells (CD138 flow cytometry); assay type: cell-based, mouse; conditions: 100 ng/mL BAFF, 10 days; 100 μM mangiferin, 20 μM 1,3,5,6-tetrahydroxyxanthone, 10 μM others; vs BAFF-added group
Protocol: B cells collected from mice were cultured in RPMI 1640 medium for 1 day. Then, 100 μM mangiferin, 10 μM mangiferin 8a, 10 μM norathyriol, 20 μM 1,3,5,6-tetrahydroxyxanthone, 10 μM xanthohydrol, 10 μM α-mangostin, 10 μM of γ-mangostin were added to B cell, and after 1 day of culture, 100 ng/mL of BAFF was added, followed by 10 days of culture. After 10 days of culture, cells were stained with anti-CD138 antibody, a marker of plasma cells, and CD138 expression was measured using BD LSRFortessa.
In all figures, the horizontal axis represents the expression level of CD138 and the vertical axis represents the number of cells.

TNFα = test: BAFF-induced TNFα secretion in B cells (ELISA); assay type: cell-based, mouse; conditions: DBA/1J spleen B cells; 10 μM compound, 100 ng/mL BAFF, 7 days; control 11.34, BAFF only 230.64
Protocol: Spleens were harvested from 6-week-old male DBA/1J mice and B cells were isolated. After isolation, the cells were cultured in RPMI 1640 medium for 1 day. Then, 10 μM mangiferin 8a and 10 μM norathyriol were added to B cells, and 100 ng/mL of BAFF was added to each 3 h later, and the cells were cultured for 7 days. After 7 days of culture, the culture supernatant was collected and TNFα secretion was measured by enzyme-linked immunosorbent assay (ELISA). This assay was performed using a mouse TNFα ELISA kit (R&D).

Th1 cells = test: Th1 cell activation in inflammation-induced mouse model (IFNγ flow cytometry); assay type: in vivo; conditions: DBA/1J mice, Freund's complete adjuvant + bovine type2 collagen; oral 10 mg/kg daily 20 days; thymus cells; vs vehicle group
Protocol: Equal volume mixtures of Freund's complete adjuvant and Bovine type2 collagen were administered to 6-week-old male DBA/1J mice (Japan SLC Inc.) at 0.1 mL (day 0 of the study). 21 days later, DBA/1J mice were again injected with 0.1 mL of the above mixture for secondary immunization. After the second immunization, mice were orally treated with 10 mg/kg of mangiferin 8a and 10 mg/kg of norathyriol daily for 20 days. 20 days later, thymus glands were harvested from mice and stained with anti-CD4 and anti-IFNγ antibodies, which are Th1 cell markers, and expression of IFNγ (CD4 positive) was measured using BD LSRFortessa.

mouse B cells = test: LPS-stimulated B cell proliferation (trypan blue); assay type: cell-based; conditions: 10 μM compound, 10 μg/mL LPS 3 days, control 1.66×10^4, LPS 4.25×10^4
Protocol: The inhibitory effect of the compound on B cell proliferation was examined using mouse B cells.
B cells collected from mice were cultured in RPMI 1640 medium for 1 day. Then, 10 μM mangiferin 8a and 10 μM norathyriol were added to B cells, and after 1 day of culture, 10 μg/mL of lipopolysaccharide (LPS) was added to each for 3 days. After 3 days of incubation, the number of viable cells was determined by the trypan blue dye method. Note that LPS was used as an allergic inflammation inducer.
Referring to FIG. 48, the horizontal axis indicates treatment with each compound and the vertical axis indicates cell count (1×10^4 cells/mL). Only 0.5% DMSO in PBS, which was used to dissolve the reagent (compound), was added as control. The LPS group is referred to as the LPS group with 10 μg/mL LPS, the mangiferin 8a group is referred to as the mangiferin 8a group with LPS and mangiferin 8a, and the norathyriol group is referred to as the norathyriol group with LPS and norathyriol.

[3] = tested on: B cells collected from mice; test: LPS-induced differentiation into mature B cells (IgM/IgD flow cytometry); assay type: cell-based, mouse; conditions: 10 μM compound, 10 μg/mL LPS, 10 days
Protocol: B cells collected from mice were cultured in RPMI 1640 medium for 1 day. Then, 10 μM mangiferin 8a and 10 μM norathyriol were added to B cell, and after 1 day of culture, 10 μg/mL of LPS was added, followed by 10 days of culture. After 10 days of culture, cells were stained with anti-IgM and anti-IgD antibodies, markers of B cells, and the expression of IgM and IgD was measured using BD LSRFortessa. Note that IgM negative and IgD negative indicates pre-B cells, IgM positive and IgD negative indicates immature B cells, and IgM positive and IgD positive indicates mature B cells.

O=c1c2cc(O)c(O)cc2oc2cc(O)cc(O)c12 [norathyriol, 1,3,6,7-tetrahydroxyxanthone]
IL-5 secretion (IL-5): 14 pg/mL | frequency of diarrhea [1]: showed a marked decrease in the frequency of diarrhea | CD138 expression [2]: significantly decreased CD138 expression | TNFα secretion (TNFα): 45.07 pg/mL | IFNγ expression (CD4 positive) (Th1 cells): markedly reduced | number of viable cells (cell count) (mouse B cells): 1.16×10^4 cells/mL | population IgM positive and IgD positive (mature B cells) ([3]; control 0.239, LPS only 20.7): 0.065% | population IgM positive and IgD negative (immature B cells) ([3]; control 1.91, LPS only 41.8): 2.14% | population IgM negative and IgD negative (pre-B cells) ([3]; control 96.7, LPS only 36.6): 97.7%
